The values that follow come from patent US20030189958A1 (priority 2000, published 2003).

Where two headings read alike, the source gives them in different places.

One assay has as its system Phytophthora infestans. In kind it is in vivo. The conditions noted are these: solo compound.
The next assay has as its system Plasmopara viticola. As to the kind of experiment: Activity against Plasmopara viticola on grape (cv Gutedel) leaf discs (Example B-2). As to conditions: solo compound.

Description for Plasmopara viticola: The action to be expected E for a given active ingredient combination obeys the so-called COLBY formula and can be calculated as follows (COLBY, S. R. “Calculating synergistic and antagonistic responses of herbicide combination”. Weeds, Vol. 15, pages 20-22; 1967):
According to COLBY, the expected (additive) action of active ingredients A)+B) using p+q ppm of active ingredient is [formula]
If the action actually observed (O) is greater than the expected action (E), then the action of the combination is super-additive, i.e. there is a synergistic effect. In mathematical terms the synergism factor SF corresponds to O/E. In the agricultural practice an SF of ≧1.2 indicates significant improvement over the purely complementary addition of activities (expected activity), while an SF of ≦0.9 in the practical application routine signals a loss of activity compared to the expected activity.
The efficacy of the mixtures against Plasmopara viticola may be determined in micro scale on grape leaf discs in 24-well plates (repeated on 4 discs per variation). […] The inoculation is done by spraying the sporangial suspension (70 000 sp/ml) on the lower leaf side. The infected (sporulating) area of each leaf disc is measured 7-8 days after incubation (under standard conditions in a climatic chamber +18° C., 12 hours day/night cycle) as a %-value of the total leaf disc area. The activity is calculated as a %-value relative to the disease rate on fully infected, untreated grape leave discs. The expected fungicide interactions of the components in the mixtures (E-values) are calculated according to the method of Colby.

Turning to `O=[N+]([O-])c1cc(C(F)(F)F)c(Cl)c([N+](=O)[O-])c1Nc1ncc(C(F)(F)F)cc1Cl` [III, fluazinam], the “observed activity (O in %)” value in the assay with Phytophthora infestans (0.025 ppm) is 0%; in the assay with Phytophthora infestans (0.05 ppm) it was 0%; in the assay with Phytophthora infestans (0.5 ppm) it was 29%.
With `COCC(=O)N(c1c(C)cccc1C)[C@H](C)C(=O)OC` [IIa, metalaxyl-M], the “observed activity (O in %)” value is on record as 3% in the assay with Plasmopara viticola (0.025 ppm), 5% in the assay with Plasmopara viticola (0.05 ppm) and 9% in the assay with Plasmopara viticola (0.1 ppm).
Take `COc1ccc(C(=CC(=O)N2CCOCC2)c2ccc(Cl)cc2)cc1OC` [IX, dimethomorph]: the “observed activity (O in %)” value amounted to 0% in the assay on Plasmopara viticola (0.01 ppm), 14% with Plasmopara viticola (0.05 ppm) and 62% in the assay on Plasmopara viticola (1 ppm).
With `N#Cc1c(Cl)c(Cl)c(Cl)c(C#N)c1Cl` [V, chlorothalonil], the “observed activity (O in %)” value in the assay on Phytophthora infestans (0.5 ppm) was 0%.
As for `CO/C=C(/C(=O)OC)c1ccccc1Oc1cc(Oc2ccccc2C#N)ncn1` [VIa, azoxystrobin], in the assay on Plasmopara viticola (0.01 ppm), the “observed activity (O in %)” value is 0%.
Regarding `CCNC(=O)NC(=O)C(C#N)=NOC` [XI, cymoxanil], the “observed activity (O in %)” value in the assay on Plasmopara viticola (0.01 ppm) worked out at 0%; with Plasmopara viticola (0.025 ppm) it was 8%.
For the compound mancozeb [IV], the “observed activity (O in %)” value with Plasmopara viticola (0.25 ppm) is recorded as 3%; in the assay with Plasmopara viticola (0.5 ppm) it was 15%.
